# Results from US8227601B2, “Diaryl-purines, azapurines and -deazapurines as non-nucleoside reverse transcriptase inhibitor for treatment of HIV” (priority 2005, dated 2012).
# How the values were obtained:
# Assay in all cases: microbe, parasite or virus in culture
# Format in all cases: cell-based, human immunodeficiency virus type 1 (HIV-1)
# HIV-1 Y181C = conditions: Human immunodeficiency virus 1, read-out: EC50 Y181C (nM), Y181C mutant
# HIV-1 L1001-K103N = conditions: Human immunodeficiency virus 1, read-out: EC50 L1001-K103N (nM), L1001-K103N mutant
# wild type HIV-1 = conditions: Human immunodeficiency virus 1, Hela-JC53, read-out: EC50 WT (nM)
# HIV-1 Y188L = conditions: Human immunodeficiency virus 1, read-out: EC50 Y188L (nM)
compound,measurement,setting,value
Cc1cc(C)c(Sc2nc(Nc3ccc(C#N)cc3)nc3cc[nH]c23)c(C)c1 [Cpd 51],EC50,HIV-1 Y181C,< 10 nM
same,EC50,HIV-1 L1001-K103N,10 to 100 nM
same,EC50,wild type HIV-1,< 10 nM
same,EC50,HIV-1 Y188L,< 10 nM
Cc1cc(C2CC2)cc(C)c1Oc1nc(Nc2ccc(C#N)cc2)nc2cc[nH]c12 [Cpd 52],EC50,HIV-1 Y181C,< 10 nM
same,EC50,HIV-1 L1001-K103N,< 10 nM
same,EC50,wild type HIV-1,< 10 nM
same,EC50,HIV-1 Y188L,< 10 nM
Cc1cc(C)c(Sc2nc(Nc3ccc(C#N)cc3)nc3c(Cl)c[nH]c23)c(C)c1 [Cpd 53],EC50,HIV-1 Y181C,10 to 100 nM
same,EC50,HIV-1 L1001-K103N,> 100 nM
same,EC50,wild type HIV-1,< 10 nM
same,EC50,HIV-1 Y188L,10 to 100 nM
Cc1cc(C)c(Sc2nc(Nc3ccc(C#N)cc3)nc3c(Cl)cn(Cc4ccccc4)c23)c(C)c1 [Cpd 54],EC50,HIV-1 Y181C,10 to 100 nM
same,EC50,HIV-1 L1001-K103N,> 100 nM
same,EC50,wild type HIV-1,< 10 nM
same,EC50,HIV-1 Y188L,10 to 100 nM
Cc1cc(C)c(Sc2nc(Nc3ccc(C#N)cc3)nc3c(Br)c[nH]c23)c(C)c1 [Cpd 55],EC50,HIV-1 Y181C,10 to 100 nM
same,EC50,HIV-1 L1001-K103N,> 100 nM
same,EC50,wild type HIV-1,< 10 nM
same,EC50,HIV-1 Y188L,10 to 100 nM
Cc1cc(C#N)cc(C)c1Oc1nc(Nc2ccc(C#N)cc2)nc2c(Cl)cn(Cc3ccccc3)c12 [Cpd 56],EC50,HIV-1 Y181C,10 to 100 nM
same,EC50,HIV-1 L1001-K103N,10 to 100 nM
same,EC50,wild type HIV-1,10 to 100 nM
same,EC50,HIV-1 Y188L,10 to 100 nM
Cc1cc(C)c(Oc2nc(Nc3ccc(C#N)cc3)nc3ccn(C)c23)c(C)c1 [Cpd 57],EC50,HIV-1 Y181C,< 10 nM
same,EC50,HIV-1 L1001-K103N,< 10 nM
same,EC50,wild type HIV-1,< 10 nM
same,EC50,HIV-1 Y188L,< 10 nM
Cc1cc(Br)cc(C)c1Oc1nc(Nc2ccc(C#N)cc2)nc2ccn(Cc3ccccc3)c12 [Cpd 58],EC50,HIV-1 Y181C,10 to 100 nM
same,EC50,HIV-1 L1001-K103N,> 100 nM
same,EC50,wild type HIV-1,10 to 100 nM
same,EC50,HIV-1 Y188L,> 100 nM
Cc1cc(C)c(Oc2nc(Nc3ccc(C#N)cc3)nc3c(Cl)cn(C)c23)c(C)c1 [Cpd 59],EC50,HIV-1 Y181C,10 to 100 nM
same,EC50,HIV-1 L1001-K103N,10 to 100 nM
same,EC50,wild type HIV-1,10 to 100 nM
same,EC50,HIV-1 Y188L,10 to 100 nM
CC(=O)c1cc(C)c(Oc2nc(Nc3ccc(C#N)cc3)nc3ccn(Cc4ccccc4)c23)c(C)c1 [Cpd 60],EC50,HIV-1 Y181C,< 10 nM
same,EC50,HIV-1 L1001-K103N,10 to 100 nM
same,EC50,wild type HIV-1,< 10 nM
same,EC50,HIV-1 Y188L,10 to 100 nM
CC(=O)c1cc(C)c(Oc2nc(Nc3ccc(C#N)cc3)nc3cc[nH]c23)c(C)c1 [Cpd 61],EC50,HIV-1 Y181C,< 10 nM
same,EC50,HIV-1 L1001-K103N,< 10 nM
same,EC50,wild type HIV-1,< 10 nM
same,EC50,HIV-1 Y188L,< 10 nM
Cc1cc(Cl)cc(C)c1Oc1nc(Nc2ccc(C#N)cc2)nc2c(Cl)cn(C)c12 [Cpd 62],EC50,HIV-1 Y181C,< 10 nM
same,EC50,HIV-1 L1001-K103N,< 10 nM
same,EC50,wild type HIV-1,< 10 nM
same,EC50,HIV-1 Y188L,< 10 nM
Cc1cc(Cl)cc(C)c1Oc1nc(Nc2ccc(C#N)cc2)nc2ccn(Cc3ccccc3)c12 [Cpd 63],EC50,HIV-1 Y181C,10 to 100 nM
same,EC50,HIV-1 L1001-K103N,> 100 nM
same,EC50,wild type HIV-1,10 to 100 nM
same,EC50,HIV-1 Y188L,> 100 nM
Cc1cc(C)c(Oc2nc(Nc3ccc(C#N)cc3)nc3ccn(Cc4ccccc4)c23)c(C)c1 [Cpd 64],EC50,HIV-1 Y181C,10 to 100 nM
same,EC50,HIV-1 L1001-K103N,> 100 nM
same,EC50,wild type HIV-1,< 10 nM
same,EC50,HIV-1 Y188L,> 100 nM
Cc1cccc(C)c1Oc1nc(Nc2ccc(C#N)cc2)nc2cc[nH]c12 [Cpd 65],EC50,HIV-1 Y181C,< 10 nM
same,EC50,HIV-1 L1001-K103N,> 100 nM
same,EC50,wild type HIV-1,< 10 nM
same,EC50,HIV-1 Y188L,< 10 nM
Cc1cc(Cl)cc(C)c1Oc1nc(Nc2ccc(C#N)cc2)nc2cc[nH]c12 [Cpd 66],EC50,HIV-1 Y181C,< 10 nM
same,EC50,HIV-1 L1001-K103N,< 10 nM
same,EC50,wild type HIV-1,< 10 nM
same,EC50,HIV-1 Y188L,< 10 nM
CC(=O)c1cc(C)c(Oc2nc(Nc3ccc(C#N)cc3)nc3c(Cl)c[nH]c23)c(C)c1 [Cpd 67],EC50,HIV-1 Y181C,< 10 nM
same,EC50,HIV-1 L1001-K103N,< 10 nM
same,EC50,wild type HIV-1,< 10 nM
same,EC50,HIV-1 Y188L,10 to 100 nM
Cc1cc(C#N)cc(C)c1Oc1nc(Nc2ccc(C#N)cc2)nc2ccn(C)c12 [Cpd 68],EC50,HIV-1 Y181C,< 10 nM
same,EC50,HIV-1 L1001-K103N,< 10 nM
same,EC50,wild type HIV-1,< 10 nM
same,EC50,HIV-1 Y188L,< 10 nM
Cc1cc(C#N)cc(C)c1Oc1nc(Nc2ccc(C#N)cc2)nc2c(Cl)cn(C)c12 [Cpd 69],EC50,HIV-1 Y181C,< 10 nM
same,EC50,HIV-1 L1001-K103N,< 10 nM
same,EC50,wild type HIV-1,< 10 nM
same,EC50,HIV-1 Y188L,< 10 nM
Cc1cc(C#N)cc(C)c1Oc1nc(Nc2ccc(C#N)cc2)nc2c(Br)cn(C)c12 [Cpd 70],EC50,HIV-1 Y181C,< 10 nM
same,EC50,HIV-1 L1001-K103N,< 10 nM
same,EC50,wild type HIV-1,< 10 nM
same,EC50,HIV-1 Y188L,< 10 nM
Cc1cc(Br)cc(Cl)c1Oc1nc(Nc2ccc(C#N)cc2)nc2cc[nH]c12 [Cpd 71],EC50,HIV-1 Y181C,< 10 nM
same,EC50,HIV-1 L1001-K103N,< 10 nM
same,EC50,wild type HIV-1,< 10 nM
same,EC50,HIV-1 Y188L,< 10 nM
